Test results as given in patent US20240115654A1, “INTRAVENOUS ADMINISTRATION OF ENGINEERED ANTIMICROBIAL AMPHIPHILIC PEPTIDES” (priority 2021, published 2024).
Like-named read-outs stand apart in the source and are kept apart here. Peptide text beside a SMILES is read from it.

Conditions: human, in vivo; for Vd: mean apparent volume of distribution (Vz)
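Also: phase 1 study in human subjects given one IV dose of the peptide, enrolled in sequential ascending-dose cohorts and randomized to peptide or placebo.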

Experimental: Administration was a single 1-hour infusion.
Subjects were enrolled in sequential cohorts of peptide ascending dose levels and randomly assigned to receive a single IV administration of either peptide or placebo over 1 to 2 hours. […] In addition, the infusion volume was adjusted for Cohort 4 to maintain drug concentrations in line with Cohort 2
Blood samples for PK assessment were collected at pre-dose, at the midpoint of infusion, within 1 minute after the end-of-infusion and at 0.5, 1, 2, 4, 6, 8, 12, 20, 24, 36 and 48 hours after the end-of-infusion.
The pharmaceutical composition was stored at 2° C. to 8° C. for up to 14 days and then 15° C. to 25° C. for up to 48 hours for dosing.
Subjects were enrolled in sequential cohorts of peptide ascending dose levels and randomly assigned to receive a single IV administration of either peptide or placebo over 1 to 2 hours.

`CC(C)[C@H](NC(=O)[C@H](Cc1c[nH]c2ccccc12)NC(=O)[C@H](CCCNC(=N)N)NC(=O)[C@H](CCCNC(=N)N)NC(=O)[C@@H](NC(=O)[C@@H](NC(=O)[C@H](CCCNC(=N)N)NC(=O)[C@@H](NC(=O)[C@@H](NC(=O)[C@H](CCCNC(=N)N)NC(=O)[C@H](CCCNC(=N)N)NC(=O)[C@H](Cc1c[nH]c2ccccc12)NC(=O)[C@@H](NC(=O)[C@H](CCCNC(=N)N)NC(=O)[C@H](CCCNC(=N)N)NC(=O)[C@@H](NC(=O)[C@H](CCCNC(=N)N)NC(=O)[C@H](CCCNC(=N)N)NC(=O)[C@@H](NC(=O)[C@H](Cc1c[nH]c2ccccc12)NC(=O)[C@H](CCCNC(=N)N)NC(=O)[C@@H](N)CCCNC(=N)N)C(C)C)C(C)C)C(C)C)C(C)C)C(C)C)C(C)C)C(C)C)C(=O)N[C@@H](CCCNC(=N)N)C(=O)N[C@@H](CCCNC(=N)N)C(N)=O` [SEQ ID NO: 1] (H-RRWVRRVRRVWRRVVRVVRRWVRR-NH2) showed a Cmax (iv, Cohort 4, 0.5 mg/kg IV infusion 2 hours, Median) of 1970 ng/mL, a Cmax (iv, Cohort 4, 0.5 mg/kg IV, infusion 2 hours, cohort Geometric Mean) of 1770 ng/mL and a Cmax (iv, Cohort 4, 0.5 mg/kg IV, infusion 2 hours, cohort Mean) of 1830 ng/mL. For the same molecule, the Cmax (iv, Cohort 4, 0.5 mg/kg IV, infusion 2 hours, cohort Median) was 1970 ng/mL, the Cmax (iv, Cohort 5, 1 mg/kg IV infusion 4 hours, Geometric Mean) was 2580 ng/mL and the Cmax (iv, Cohort 5, 1 mg/kg IV infusion 4 hours, Mean) was 2650 ng/mL. For the same molecule, the Cmax (iv, Cohort 5, 1 mg/kg IV infusion 4 hours, Median) was 2510 ng/mL, the Cmax (iv, Cohort 5, 1 mg/kg IV infusion 4 hours, individual subject) was 4000 ng/mL and the Tmax (iv, Tmax, Cohort 1, 0.05 mg/kg IV infusion, Geometric Mean) was 1 h. It also gave a Tmax (iv, Tmax, Cohort 1, 0.05 mg/kg IV infusion, Mean) of 1 h, a Tmax (iv, Tmax, Cohort 1, 0.05 mg/kg IV infusion, Median) of 1 h and a Tmax (iv, Tmax, Cohort 1, 0.05 mg/kg IV infusion, cohort Geometric Mean) of 1 h. The Tmax (iv, Tmax, Cohort 1, 0.05 mg/kg IV infusion, cohort Mean) was 1 h, the Tmax (iv, Tmax, Cohort 1, 0.05 mg/kg IV infusion, cohort Median) was 1 h and the Tmax (iv, Tmax, Cohort 1, 0.05 mg/kg IV infusion, individual subject) was 1 h. The Tmax (iv, Tmax, Cohort 1, 0.05 mg/kg IV infusion, individual subjects) was 1 h, the Tmax (iv, Tmax, Cohort 2, […] IV infusion, Geometric Mean) was 1 h and the Tmax (iv, Tmax, Cohort 2, […] IV infusion, Mean) was 1 h. The Tmax (iv, Tmax, Cohort 2, […] IV infusion, Median) was 1 h, the Tmax (iv, Tmax, Cohort 2, […] IV infusion, cohort Geometric Mean) was 1 h and the Tmax (iv, Tmax, Cohort 2, […] IV infusion, cohort Mean) was 1 h. The Tmax (iv, Tmax, Cohort 2, […] IV infusion, cohort Median) was 1 h, the Tmax (iv, Tmax, Cohort 2, […] IV infusion, individual subject) was 1 h and the Tmax (iv, Tmax, Cohort 2, […] IV infusion, individual subjects) was 1 h. For the same molecule, the Tmax (iv, Tmax, Cohort 3, […] IV infusion, Geometric Mean) was 0.66 h, the Tmax (iv, Tmax, Cohort 3, […] IV infusion, Mean) was 0.71 h and the Tmax (iv, Tmax, Cohort 3, […] IV infusion, Median) was 0.5 h. The Tmax (iv, Tmax, Cohort 3, […] IV infusion, cohort Geometric Mean) was 0.66 h, the Tmax (iv, Tmax, Cohort 3, […] IV infusion, cohort Mean) was 0.71 h and the Tmax (iv, Tmax, Cohort 3, […] IV infusion, cohort Median) was 0.5 h. The Tmax (iv, Tmax, Cohort 3, […] IV infusion, individual subject) was 1 h, the Tmax (iv, Tmax, Cohort 3, […] IV infusion, individual subjects) was 1 h and the Tmax (iv, Tmax, Cohort 3b, […] IV infusion 2 hours, Geometric Mean) was 2 h. The Tmax (iv, Tmax, Cohort 3b, […] IV infusion 2 hours, Mean) was 2 h, the Tmax (iv, Tmax, Cohort 3b, […] IV infusion 2 hours, Median) was 2 h and the Tmax (iv, Tmax, Cohort 3b, […] IV infusion 2 hours, individual subject) was 2 h. For the same molecule, the Tmax (iv, Tmax, Cohort 3b, infusion 2 hours, cohort Geometric Mean) was 2 h, the Tmax (iv, Tmax, Cohort 3b, infusion 2 hours, cohort Mean) was 2 h and the Tmax (iv, Tmax, Cohort 3b, infusion 2 hours, cohort Median) was 2 h. For the same molecule, the Tmax (iv, Tmax, Cohort 3b, infusion 2 hours, individual subjects) was 2 h, the Tmax (iv, Tmax, Cohort 4, 0.5 mg/kg IV infusion 2 hours, Geometric Mean) was 2 h and the Tmax (iv, Tmax, Cohort 4, 0.5 mg/kg IV infusion 2 hours, Mean) was 2 h. It also gave a Tmax (iv, Tmax, Cohort 4, 0.5 mg/kg IV infusion 2 hours, Median) of 2 h, a Tmax (iv, Tmax, Cohort 4, 0.5 mg/kg IV infusion 2 hours, individual subject) of 2 h and a Tmax (iv, Tmax, Cohort 4, 0.5 mg/kg IV, infusion 2 hours, cohort Geometric Mean) of 2 h. The Tmax (iv, Tmax, Cohort 4, 0.5 mg/kg IV, infusion 2 hours, cohort Mean) was 2 h, the Tmax (iv, Tmax, Cohort 4, 0.5 mg/kg IV, infusion 2 hours, cohort Median) was 2 h and the Tmax (iv, Tmax, Cohort 4, 0.5 mg/kg IV, infusion 2 hours, individual subjects) was 2 h. The Tmax (iv, Tmax, Cohort 5, 1 mg/kg IV infusion 4 hours, Geometric Mean) was 4 h, the Tmax (iv, Tmax, Cohort 5, 1 mg/kg IV infusion 4 hours, Mean) was 4 h and the Tmax (iv, Tmax, Cohort 5, 1 mg/kg IV infusion 4 hours, Median) was 4 h. The Tmax (iv, Tmax, Cohort 5, 1 mg/kg IV infusion 4 hours, individual subject) was 4 h, the half-life (iv, […], t1/2, […] IV 1-hr infusion) was 10.5 h and the half-life (iv, […], t1/2, […] IV 1-hr infusion (only 3 participants)) was 19.9 h. The half-life (iv, […], t1/2, […] IV 2-hr infusion) was 13.2 h, the Tmax (iv, median Tmax, 0.05 and […] doses, 1-hour IV infusion (Cohorts 1, 2)) was 1.02 h and the Tmax (iv, median Tmax, 0.25 and 0.5 mg/kg doses, 2-hour IV infusion (Cohorts 3b, 4)) was 2.02 h. The half-life (iv, t1/2, Cohort 1, 0.05 mg/kg IV infusion, Geometric Mean) was 7.33 h, the half-life (iv, t1/2, Cohort 1, 0.05 mg/kg IV infusion, Mean) was 7.36 h and the half-life (iv, t1/2, Cohort 1, 0.05 mg/kg IV infusion, Median) was 7.29 h. For the same molecule, the half-life (iv, t1/2, Cohort 1, 0.05 mg/kg IV infusion, cohort Geometric Mean) was 7.33 h, the half-life (iv, t1/2, Cohort 1, 0.05 mg/kg IV infusion, cohort Mean) was 7.36 h and the half-life (iv, t1/2, Cohort 1, 0.05 mg/kg IV infusion, cohort Median) was 7.29 h. The half-life (iv, t1/2, Cohort 1, 0.05 mg/kg IV infusion, individual subject) was 6.62 h, the half-life (iv, t1/2, Cohort 1, 0.05 mg/kg IV infusion, individual subjects) was 6.62 h and the half-life (iv, t1/2, Cohort 2, […] IV infusion, Geometric Mean) was 10.1 h. It also gave a half-life (iv, t1/2, Cohort 2, […] IV infusion, Mean) of 10.5 h, a half-life (iv, t1/2, Cohort 2, […] IV infusion, Median) of 9.2 h and a half-life (iv, t1/2, Cohort 2, […] IV infusion, cohort Geometric Mean) of 10.1 h. For the same molecule, the half-life (iv, t1/2, Cohort 2, […] IV infusion, cohort Mean) was 10.5 h, the half-life (iv, t1/2, Cohort 2, […] IV infusion, cohort Median) was 9.2 h and the half-life (iv, t1/2, Cohort 3, […] IV infusion, Geometric Mean) was 13.6 h. It also gave a half-life (iv, t1/2, Cohort 3, […] IV infusion, Mean) of 15.2 h, a half-life (iv, t1/2, Cohort 3, […] IV infusion, Median) of 19 h and a half-life (iv, t1/2, Cohort 3, […] IV infusion, cohort Geometric Mean) of 13.6 h. For the same molecule, the half-life (iv, t1/2, Cohort 3, […] IV infusion, cohort Mean) was 15.2 h, the half-life (iv, t1/2, Cohort 3, […] IV infusion, cohort Median) was 19 h and the half-life (iv, t1/2, Cohort 3b, […] IV infusion 2 hours, Geometric Mean) was 12.8 h. The half-life (iv, t1/2, Cohort 3b, […] IV infusion 2 hours, Mean) was 13.1 h, the half-life (iv, t1/2, Cohort 3b, […] IV infusion 2 hours, Median) was 13.1 h and the half-life (iv, t1/2, Cohort 3b, […] IV infusion 2 hours, individual subject) was 17.5 h. The half-life (iv, t1/2, Cohort 3b, infusion 2 hours, cohort Geometric Mean) was 12.8 h, the half-life (iv, t1/2, Cohort 3b, infusion 2 hours, cohort Mean) was 13.1 h and the half-life (iv, t1/2, Cohort 3b, infusion 2 hours, cohort Median) was 13.1 h. It also gave a half-life (iv, t1/2, Cohort 3b, infusion 2 hours, individual subjects) of 17.5 h, a half-life (iv, t1/2, Cohort 4, 0.5 mg/kg IV infusion 2 hours, Geometric Mean) of 15.7 h and a half-life (iv, t1/2, Cohort 4, 0.5 mg/kg IV infusion 2 hours, Mean) of 16.2 h. It also gave a half-life (iv, t1/2, Cohort 4, 0.5 mg/kg IV infusion 2 hours, Median) of 15.6 h, a half-life (iv, t1/2, Cohort 4, 0.5 mg/kg IV infusion 2 hours, individual subject) of 12.6 h and a half-life (iv, t1/2, Cohort 4, 0.5 mg/kg IV, infusion 2 hours, cohort Geometric Mean) of 15.7 h. For the same molecule, the half-life (iv, t1/2, Cohort 4, 0.5 mg/kg IV, infusion 2 hours, cohort Mean) was 16.2 h, the half-life (iv, t1/2, Cohort 4, 0.5 mg/kg IV, infusion 2 hours, cohort Median) was 15.6 h and the half-life (iv, t1/2, Cohort 4, 0.5 mg/kg IV, infusion 2 hours, individual subjects) was 12.6 h. It also gave a half-life (iv, t1/2, Cohort 5, 1 mg/kg IV infusion 4 hours, Geometric Mean) of 18.6 h, a half-life (iv, t1/2, Cohort 5, 1 mg/kg IV infusion 4 hours, Mean) of 19.9 h and a half-life (iv, t1/2, Cohort 5, 1 mg/kg IV infusion 4 hours, Median) of 20.9 h. For the same molecule, the Tmax (mean Tmax, Cohort 1, from the start of infusion) was 0.85 h, the Tmax (mean Tmax, Cohort 5, from the start of infusion) was 4.19 h and the Vd (Cohort 1) was 25.5 L. It also gave a Vd (Cohort 5) of 94.2 L, a half-life (mean half-life, Cohorts 1 to 3 (0.05 to […], 1-hour infusion), increasing with dose) of 7.22 to 15.2 h and a half-life (mean half-life, Cohorts 3b and 4 (0.25 and 0.5 mg/kg, 2-hour infusion), increasing with dose) of 13.1 to 16.2 h. It also gave a half-life (mean terminal half-life, range over dose groups, dose range 0.05 to 0.5 mg/kg (Cohorts 1 to 4)) of 7.4 to 19.9 h, a half-life (t1/2, single 1-hour infusion 0.05 mg/kg, Geometric Mean) of 7.33 h and a half-life (t1/2, single 1-hour infusion 0.05 mg/kg, Mean) of 7.36 h. It also gave a half-life (t1/2, single 1-hour infusion 0.05 mg/kg, Median) of 7.29 h and a half-life (t1/2, single 1-hour infusion 0.05 mg/kg, individual subjects) of 6.62 h.
